Measurements taken from US9532569B2 (INSTITUT NATIONAL DE LA RECHERCHE AGRONOMIQUE, priority 2012, dated 2017).

Key:
[1] = Stability in aqueous medium (UPLC, % nondegraded compound); format: physicochemical
Procedure: The stability in aqueous medium of the compound (IIa) according to the invention and that of GR24 as comparative compound was evaluated in the following way.
Each compound was diluted in acetone (1 ml), then 50 μl of each solution were diluted with methanol (175 μl) and water (750 μl) so as to obtain a compound concentration of 50 μg/ml.
The aqueous solution thus obtained was incubated at 21° C. in HPLC vials.
Indanol (25 μl of a solution at 1 mg/ml in acetone) was added to each solution in order to serve as an internal standard.
The degradation of each compound over time was monitored by analysis of samples taken from the solution at various time intervals, by Ultra Performance Liquid Chromatograpy (UPLC) by means of an Acquity UPLC HSS C18 column (1.8 μm, 2.1×50 mm), eluted first of all with a solution of acetonitrile at 5% in water containing 0.1% of formic acid, for 0.5 min, then with a gradient of 5% to 100% of acetonitrile in water containing 0.1% of formic acid, for 6.5 min, and with 100% of acetonitrile containing 0.1% of formic acid for 3 min. The column was maintained at a temperature of 40° C., with a flow of 0.6 ml/min.
The compounds eluted from the column were detected with a photodiode array detector.
The relative amount of nondegraded compound in the solution was determined by comparison with the internal standard.
In a second experiment, the stability in aqueous medium of the compounds (IIa) and (IIIb) according to the invention, and that of GR24 as comparative compound, was evaluated according to the protocol described above.

Striga hermonthica = assay: Germinative activity on parasitic plants; format: in vivo; conditions: counted after 4 days, 30° C.
Procedure: In this example, the germinative activity of the compounds in accordance with the invention (IIa) and (IIIb) and of the comparative compound GR24 was evaluated on the parasitic plants: Orobanche cumana, Orobanche minor, Striga hermonthica, Phelipanche ramosa (pv T and pv C).
The test protocol used was the following.
Seeds of Striga hermonthica (Del.) Benth were collected at Gadarif, Eastern Sudan, in 1999.
The seeds are stored dry in the dark at 25° C.
The compounds to be studied were resuspended in acetone at 10 mmol·l^−1, then diluted with water to 1 mmol·l^−1 (water/acetone; v/v; 99/1). Dilutions of 1×10^−3 mol·l^−1 to 1×10^−15 mol·l^−1 were then prepared in a water/acetone mixture (v/v; 99/1). Seeds of parasitic plants were surface-sterilized according to the protocol described in the publication by Vieira Dos Santos et al. (2003), then resuspended in sterile water (10 g·l^−1) and distributed on a 96-well plate (in a proportion of 50 μl, i.e. approximately 100 seeds per well). After preconditioning (7 days, 21° C., in the dark, plate hermetically sealed, except for the seeds of S. hermonthica, which were preconditioned at 30° C.), the compounds to be studied were added and the volumes adjusted to 100 μl with water (water/acetone; v/v; 999/1).
In a plate, a range of concentrations from 10^−13 mol·l^−1 to 10^−6 mol·l^−1 was applied for GR24 and (IIa) and from 10^−12 to 10^−5 mol·l^−1 for (IIIb). Controls were carried out with a water/acetone mixture (v/v; 999/1) and without seeds. The plates were incubated so as to allow germination (21° C., in the dark or 30° C. for Striga hermonthica.). After 4 days, the seeds which had germinated were counted under a stereomicroscope (SZX10, Olympus). […] For each compound tested, dose-response curves (g=f(c), where g is the germination percentage and c the concentration (mol·l^−1)), and the EC50 (median effective concentration) were modeled on the basis of a 4-parameter logistic curve calculated with SigmaPlot® 10.0.
The percentages of maximum germination induced by the compounds tested for each parasitic plant were determined.

pea mutant rms1 = assay: Inhibition of branching in the pea, application directly on the axillary bud; format: in vivo, Pisum sativum L.; conditions: Experiment 7, FIG. 9; 0.1 nM, 1 nM, 10 nM and 100 nM

Structure (SMILES): CC1=C(C)C(Sc2ccc(Cl)cc2)OC1=O (stereo not shown) [Compound (IIa), 5-((4-chlorophenyl)thio)-3,4-dimethylfuran-2(5H)-one]
- chemical stability in aqueous solution (% of nondegraded compound as a function of incubation time) ([1]; 50 μg/ml of compound in methanol/water: 1/4, pH 6.7, 21° C., FIG. 1): very high chemical stability in aqueous solution, much higher than that of GR24
- chemical stability in aqueous solution (% of nondegraded compound as a function of incubation time) ([1]; second experiment, longer incubation times, 50 μg/ml in methanol/water: 1/4, pH 6.7, 21° C., FIG. 2): very high chemical stability in aqueous solution, much higher than that of GR24
- Percentage of maximum germination induced (Striga hermonthica): no (no significant germination compared to the negative control (<2%))
- inhibitory activity on bud growth at node 4 (length of bud/branch 8 days after treatment at node 4) (pea mutant rms1): equivalent to that of GR24 at the strongest concentrations, and slightly better at the lowest concentration of 0.1 nM
